Test results from US20220169632A1, “METHODS AND MATERIALS FOR INCREASING OR MAINTAINING NICOTINAMIDE MONONUCLEOTIDE ADENYLYL TRANSFERASE-2 (NMNAT2) POLYPEPTIDE LEVELS” (University of Pittsburgh - Of the Commonwealth System of …, priority 2019, published 2022).

System: NMNAT2
Test: NMNAT2-Hibit nano-luciferase activity in stably transfected U87MG cells, various concentrations, 24 hours
Format: cell-based
Conditions: U87MG cells stably transfected with NMNAT2-Hibit luc plasmid
Description: Selected compounds were tested in vitro. U87MG cells were stably transfected with NMNAT2-Hibit luc plasmid. Cells were treated with a test compound at various concentrations for 24 hours. Cells were then collected and assayed for nano-luciferase activity.

| SMILES | E: compound efficacy for NMNAT2 activation (concentration giving >25% increase in NMNAT2 luciferase activity) |
| --- | --- |
| CCCCN(CC)Cc1ccc(CNC(=O)CCCc2cn(Cc3ccccc3C)c3ccccc23)o1 [BC20162] | +++ (“+++” >25% increase in NMNAT2 luciferase activity at ≤1 μM.) |
| Cc1cccc(CNC(=O)Cn2cc(C(=O)c3ccc(Cl)cc3)c3ccccc32)c1 [BC20179] | ++ (“++” >25% increase in NMNAT2 luciferase activity at >1 μM ≤25 μM.) |
| Cc1ccc(Cn2cc(C3CCNC(=O)C3)c3ccccc32)cc1 (stereo not shown) [BC20192] | ++ (“++” >25% increase in NMNAT2 luciferase activity at >1 μM ≤25 μM.) |
| Cc1ccc(CNC(=O)CCCc2cn(Cc3ccccc3C)c3ccccc23)o1 [BC20150] | ++ (“++” >25% increase in NMNAT2 luciferase activity at >1 μM ≤25 μM.) |
| COc1ccccc1CNC(=O)[C@H]1C[C@@H]1c1cn(Cc2cc(C)ccc2C)c2ccccc12 (racemic) [BC20349] | + (“+” >25% increase in NMNAT2 luciferase activity at >25 μM.) |
| Cc1ccc(C)c(Cn2c3c(c4ccccc42)CC(C(=O)NCc2ccc(C)o2)CC3)c1 (stereo not shown) [BC20183] | + (“+” >25% increase in NMNAT2 luciferase activity at >25 μM.) |
| CCOC(=O)Cn1cc(C2CCNC(=O)C2)c2ccccc21 (stereo not shown) [BC20235] | ++ (“++” >25% increase in NMNAT2 luciferase activity at >1 μM ≤25 μM.) |
| Cc1c(C)n(Cc2ccccc2F)c2ccc(C(=O)NCc3ccccc3F)cc12 [BC20103] | +++ (“+++” >25% increase in NMNAT2 luciferase activity at ≤1 μM.) |
| O=C(NCCc1ccccc1)N1CCc2c(c3ccccc3n2Cc2ccncc2)C1 [BC20335] | + (“+” >25% increase in NMNAT2 luciferase activity at >25 μM.) |
| Cc1ccc(C)c(Cn2cc3c4c(cccc42)C(=O)N(CCc2ccccc2C)CC3)c1 [BC20273] | + (“+” >25% increase in NMNAT2 luciferase activity at >25 μM.) |
| COc1ccccc1CNC(=O)CCCc1cn(Cc2ccccc2C)c2ccccc12 [BC20155] | ++ (“++” >25% increase in NMNAT2 luciferase activity at >1 μM ≤25 μM.) |
| CC(Cc1ccco1)NC(=O)CCCc1cn(Cc2ccccc2F)c2ccccc12 (stereo not shown) [BC20130] | ++ (“++” >25% increase in NMNAT2 luciferase activity at >1 μM ≤25 μM.) |
| O=C(Cn1c2c(c3ccccc31)CN(C(=O)NCCc1ccccc1)CC2)NCc1ccco1 [BC20329] | + (“+” >25% increase in NMNAT2 luciferase activity at >25 μM.) |
| Cc1ccc(CNC(=O)C2CCc3c(c4ccccc4n3Cc3cccc(F)c3)C2)o1 (stereo not shown) [BC20221] | + (“+” >25% increase in NMNAT2 luciferase activity at >25 μM.) |
| Cc1ccc(C)c(Cn2c(C)c([C@H]3C[C@@H]3C(=O)NCc3ccco3)c3ccccc32)c1 (racemic) [BC20323] | + (“+” >25% increase in NMNAT2 luciferase activity at >25 μM.) |
| Cc1ccc(C)c(Cn2c(C(F)F)c(CCC(=O)NCc3cccc(F)c3)c3ccccc32)c1 [BC20394] | + (“+” >25% increase in NMNAT2 luciferase activity at >25 μM.) |
| COc1ccccc1CNC(=O)[C@H]1C[C@@H]1c1cn(Cc2ccc(C)cc2)c2ccccc12 (racemic) [BC20298] | + (“+” >25% increase in NMNAT2 luciferase activity at >25 μM.) |
| Cc1cccc(NC(=O)c2ccc3c(c2)c(C)c(C)n3Cc2cccc(F)c2)c1C [BC20249] | +++ (“+++” >25% increase in NMNAT2 luciferase activity at ≤1 μM.) |
| Cc1ccc(Cn2c3c(c4ccccc42)C(C(=O)NCc2ccccc2F)CCC3)cc1 (stereo not shown) [BC20385] | ++ (“++” >25% increase in NMNAT2 luciferase activity at >1 μM ≤25 μM.) |
| Cc1cccc(CNC(=O)C2CCc3c(c4ccccc4n3Cc3cccc(F)c3)C2)c1 (stereo not shown) [BC20224] | + (“+” >25% increase in NMNAT2 luciferase activity at >25 μM.) |
| O=C(C1CCCc2c1c1ccccc1n2Cc1cccc(F)c1)N(CCCN1CCOCC1)Cc1ccco1 (stereo not shown) [BC20382] | ++ (“++” >25% increase in NMNAT2 luciferase activity at >1 μM ≤25 μM.) |
| CC(Cc1ccco1)NC(=O)Cn1cc(C(=O)c2ccc(Cl)cc2)c2ccccc21 (stereo not shown) [BC20214] | + (“+” >25% increase in NMNAT2 luciferase activity at >25 μM.) |
| Cc1ccc(C)c(Cn2cc([C@H]3C[C@@H]3C(=O)NCc3cccc(F)c3)c3ccccc32)c1 (racemic) [BC20346] | + (“+” >25% increase in NMNAT2 luciferase activity at >25 μM.) |

| SMILES | E: compound efficacy for NMNAT2 activation (concentration giving >25% increase in NMNAT2 luciferase activity) |
| --- | --- |
| Cc1ccccc1CNC(=O)Cn1c2c(c3ccccc31)CC(C(=O)NCc1ccco1)CC2 (stereo not shown) [BC20287] | ++ (“++” >25% increase in NMNAT2 luciferase activity at >1 μM ≤25 μM.) |
| O=C(Cn1cc(C(=O)c2ccc(Cl)cc2)c2ccccc21)NCc1ccccc1F [BC20177] | +++ (“+++” >25% increase in NMNAT2 luciferase activity at ≤1 μM.) |
| COc1ccccc1CNC(=O)C1CCc2c(c3ccccc3n2CC(=O)NCc2ccco2)C1 (stereo not shown) [BC20240] | ++ (“++” >25% increase in NMNAT2 luciferase activity at >1 μM ≤25 μM.) |
| COc1ccccc1CNC(=O)c1ccc2c(c1)c(C)c(C)n2Cc1ccccc1F [BC20106] | ++ (“++” >25% increase in NMNAT2 luciferase activity at >1 μM ≤25 μM.) |
| O=C(CCCc1cn(Cc2ccccc2F)c2ccccc12)NCc1ccco1 [BC20121] | ++ (“++” >25% increase in NMNAT2 luciferase activity at >1 μM ≤25 μM.) |
| Cc1ccc(C)c(Cn2c(C(F)F)c(CCC(=O)NCc3cccnc3)c3ccccc32)c1 [BC20403] | + (“+” >25% increase in NMNAT2 luciferase activity at >25 μM.) |
| O=C(CCCc1cn(Cc2cccc(F)c2)c2ccccc12)N1CCN(C(=O)c2ccco2)CC1 [BC20144] | ++ (“++” >25% increase in NMNAT2 luciferase activity at >1 μM ≤25 μM.) |
| Cc1cccc(CN2CCC(c3cn(Cc4cccc(F)c4)c4ccccc34)CC2=O)c1 (stereo not shown) [BC20321] | + (“+” >25% increase in NMNAT2 luciferase activity at >25 μM.) |
| O=C(CCCc1cn(Cc2ccccc2F)c2ccccc12)NCCc1ccccc1 [BC20131] | ++ (“++” >25% increase in NMNAT2 luciferase activity at >1 μM ≤25 μM.) |
| Cc1ccccc1Cn1cc(CCCC(=O)N2CCN(C(=O)c3ccco3)CC2)c2ccccc21 [BC20158] | ++ (“++” >25% increase in NMNAT2 luciferase activity at >1 μM ≤25 μM.) |
| O=C(NCC1CCCO1)N1CCc2c(c3ccccc3n2Cc2ccncc2)C1 (stereo not shown) [BC20358] | + (“+” >25% increase in NMNAT2 luciferase activity at >25 μM.) |
| Cc1ccc(C)c(Cn2cc([C@H]3C[C@@H]3C(=O)NCc3cccnc3)c3ccccc32)c1 (racemic) [BC20351] | + (“+” >25% increase in NMNAT2 luciferase activity at >25 μM.) |
| Cc1ccccc1CNC(=O)CCCc1cn(Cc2ccccc2F)c2ccccc12 [BC20125] | ++ (“++” >25% increase in NMNAT2 luciferase activity at >1 μM ≤25 μM.) |
| COc1cccc(CNC(=O)[C@H]2C[C@@H]2c2cn(Cc3cc(C)ccc3C)c3ccccc23)c1 (racemic) [BC20350] | + (“+” >25% increase in NMNAT2 luciferase activity at >25 μM.) |
| O=C(Cn1c2c(c3ccccc31)CC(C(=O)NCCc1ccccc1)CC2)NCc1ccco1 (stereo not shown) [BC20262] | ++ (“++” >25% increase in NMNAT2 luciferase activity at >1 μM ≤25 μM.) |
| Cc1ccc(C)c(Cn2cc([C@H]3C[C@@H]3C(=O)NCCc3ccccc3)c3ccccc32)c1 (racemic) [BC20360] | ++ (“++” >25% increase in NMNAT2 luciferase activity at >1 μM ≤25 μM.) |
| COc1ccc(CNC(=O)N2CCc3c(c4ccccc4n3CC(=O)NCc3ccco3)C2)cc1 [BC20330] | ++ (“++” >25% increase in NMNAT2 luciferase activity at >1 μM ≤25 μM.) |
| Cc1ccccc1CNC(=O)C1CCc2c(c3ccccc3n2CC(=O)NCc2ccco2)C1 (stereo not shown) [BC20238] | ++ (“++” >25% increase in NMNAT2 luciferase activity at >1 μM ≤25 μM.) |
| Cc1c(C)n(Cc2cccc(F)c2)c2ccc(C(=O)NCCc3ccccc3)cc12 [BC20248] | ++ (“++” >25% increase in NMNAT2 luciferase activity at >1 μM ≤25 μM.) |
| COc1ccccc1CNC(=O)CCCc1cn(Cc2cccc(C)c2)c2ccccc12 [BC20213] | ++ (“++” >25% increase in NMNAT2 luciferase activity at >1 μM ≤25 μM.) |
| COc1cccc(CNC(=O)C2CCc3c(c4ccccc4n3Cc3cc(C)ccc3C)C2)c1 (stereo not shown) [BC20188] | ++ (“++” >25% increase in NMNAT2 luciferase activity at >1 μM ≤25 μM.) |
| COc1cccc(CNC(=O)C2CCc3c(c4ccccc4n3CC(=O)NCc3ccco3)C2)c1 (stereo not shown) [BC20241] | ++ (“++” >25% increase in NMNAT2 luciferase activity at >1 μM ≤25 μM.) |
| Cc1ccccc1Cn1c(C)c(C)c2cc(C(=O)NCCc3ccccc3)ccc21 [BC20251] | ++ (“++” >25% increase in NMNAT2 luciferase activity at >1 μM ≤25 μM.) |
